According to ChEMBL document CHEMBL5537116, “Synthesis and structure-activity optimization of hydroxypyridinones against rhabdomyolysis-induced acute kidney injury” (Eur J Med Chem, 2024):
Calls of active or inactive are those of the source. The rule behind the calls is not given here.

Tests used:
HK-2 [1] = experiment: Inhibition of RSL-3 induced ferroptosis in human HK-2 cells incubated for 48 hrs in presence of FAC; assay type: functional, cell-based; details: HK-2, 48 h
[2] = Cytotoxicity against human HK-2 cells assessed as cell growth inhibition incubated for 48 hrs by SRB assay; assay type: toxicity, cell-based
[3] = Competitive binding affinity to Fe3+ ion assessed as metal chelating activity by measuring binding constant by calcein probe based fluorescence displacement assay
[4] = Potency index, ratio of trolox IC50 to test compound IC50 for antioxidant activity assessed as ABTS radical scavenging activity incubated for 6 mins by absorbance based microplate reader analysis; assay type: functional
HK-2 [5] = experiment: Anti-ferroptotic activity against RSL3-induced ferroptosis in human HK-2 cells assessed as decrease in lipid peroxidation by measuring fluorescent intensity preincubated with FAC for 2 hrs followed by compound addition and measured after 12 hrs by flow cytometry analysis; assay type: functional, cell-based
[6] = Antioxidant activity assessed as ABTS radical scavenging activity incubated for 6 mins by absorbance based microplate reader analysis; assay type: functional
[7] = Sub-acute in C57BL/6 mouse assessed as animal death at 1 mg/kg, ip measured on day 2; assay type: toxicity, organism-based; details: in vivo, 48 h, time 2 day
Mus musculus [8] = experiment: (§1) Reno-protective activity against glycerol-induced rhabdomyolysis acute kidney injury C57BL/6 mouse model assessed as decrease in serum creatinine level at 50 mg/kg, ip preadministered with every 12 hrs of compound for 5 times in first three days with subsequent 1 hrs compound treatment after 16 hrs of water deprivation followed by glycerol administration and measured on day 5; assay type: functional; design: scale not given: the % may be the effect or the level left; details: time 5 day
Mus musculus [9] = experiment: as §1, with “BUN” for “serum creatinine”; assay type: functional; design: scale not given: the % may be the effect or the level left; details: time 5 day
HK-2 [10] = experiment: Upregulation in intracellular HIF-1alpha level in human HK-2 cells at 50 uM under normoxia condition incubated for 12 hrs by Western blot analysis; assay type: functional, cell-based
Mus musculus [11] = experiment: as §1, with “BUN” for “serum creatinine”, “4 to 10” for “50”; assay type: functional, organism-based; details: dose 4-10 mg/kg, time 5.0 day
Mus musculus [12] = experiment: as §1, with “10” for “50”; assay type: functional; design: scale not given: the % may be the effect or the level left; details: time 5 day
Mus musculus [13] = experiment: (§2) Reno-protective activity against glycerol-induced rhabdomyolysis acute kidney injury C57BL/6 mouse model assessed as downregulation of Acls4 mRNA expression at 4 to 10 mg/kg, ip preadministered with every 12 hrs of compound for 5 times in first three days with subsequent 1 hrs compound treatment after 16 hrs of water deprivation followed by glycerol administration and measured on day 5 by qRT-PCR analysis; assay type: functional, organism-based; details: dose 4-10 mg/kg, time 5.0 day
[14] = Sub-acute in C57BL/6 mouse assessed as poisoning symptoms at 1 mg/kg, ip measured for 7 days; assay type: toxicity, organism-based; details: in vivo, 168 h, time 7 day
Mus musculus [15] = experiment: as §1, with “4” for “50”; assay type: functional; design: scale not given: the % may be the effect or the level left; details: time 5 day
[16] = biological target: Hypoxia-inducible factor 1-alpha (Homo sapiens) (UniProt Q16665); experiment: Induction of HIF-1alpha stabilization in human HK-2 cells by Western blotting analysis; assay type: cell-based; details: dose 5-20 µM
Hypoxia-inducible factor 1-alpha (Homo sapiens), sequence (Q16665 whole entry, looked up): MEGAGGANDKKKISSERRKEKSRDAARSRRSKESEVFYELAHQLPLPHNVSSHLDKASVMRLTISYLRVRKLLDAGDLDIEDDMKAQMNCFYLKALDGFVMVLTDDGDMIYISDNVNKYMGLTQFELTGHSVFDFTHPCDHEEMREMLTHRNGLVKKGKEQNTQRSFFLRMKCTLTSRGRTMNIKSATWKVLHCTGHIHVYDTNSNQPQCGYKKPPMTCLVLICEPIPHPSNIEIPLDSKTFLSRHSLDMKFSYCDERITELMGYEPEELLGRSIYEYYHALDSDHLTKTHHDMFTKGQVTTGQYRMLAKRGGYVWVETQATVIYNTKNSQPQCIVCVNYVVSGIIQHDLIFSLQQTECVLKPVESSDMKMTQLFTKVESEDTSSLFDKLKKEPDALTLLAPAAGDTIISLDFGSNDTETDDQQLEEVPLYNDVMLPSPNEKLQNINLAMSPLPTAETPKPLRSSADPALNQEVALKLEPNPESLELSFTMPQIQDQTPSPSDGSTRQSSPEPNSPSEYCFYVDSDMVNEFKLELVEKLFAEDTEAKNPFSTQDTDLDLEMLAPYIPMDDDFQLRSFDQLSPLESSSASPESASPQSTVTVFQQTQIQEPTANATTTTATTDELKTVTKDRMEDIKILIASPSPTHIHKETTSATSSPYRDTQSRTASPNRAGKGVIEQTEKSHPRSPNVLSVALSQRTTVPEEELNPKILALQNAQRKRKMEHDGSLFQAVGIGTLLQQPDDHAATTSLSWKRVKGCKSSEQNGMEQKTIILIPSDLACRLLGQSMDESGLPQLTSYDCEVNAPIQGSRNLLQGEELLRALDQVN

Mus musculus [17] = experiment: as §1, with “BUN” for “serum creatinine”, “4” for “50”; assay type: functional; design: scale not given: the % may be the effect or the level left; details: time 5 day
HK-2 [18] = experiment: Upregulation in intracellular HIF-1alpha level in human HK-2 cells at 20 uM under normoxia condition incubated for 12 hrs by Western blot analysis; assay type: functional, cell-based
[19] = Sub-acute in C57BL/6 mouse assessed as animal death at 1 mg/kg, ip measured for 7 days; assay type: toxicity, organism-based; details: in vivo, 168 h, time 7 day
Mus musculus [20] = experiment: Upregulation of HIF-1alpha expression in C57BL/6 mouse kidney at 50 mg/kg, ip administered for every 12 hrs for 3 days and measured after 5 days; assay type: functional, organism-based
[21] = Sub-acute in C57BL/6 mouse assessed as change in body weight at 200 mg/kg, ip measured for 7 days; assay type: toxicity, organism-based; details: in vivo, 168 h, time 7 day
Mus musculus [22] = experiment: as §2, with “Ptgs2” for “Acls4”; assay type: functional, organism-based; details: dose 4-10 mg/kg, time 5.0 day
Mus musculus [23] = experiment: as §2, with “decrease in iron accumulation in kidney” for “downregulation of Acls4 mRNA expression”, “5” for “5 by qRT-PCR analysis”; assay type: functional, organism-based; details: dose 4-10 mg/kg, time 5.0 day
Mus musculus [24] = experiment: as §1, with “BUN” for “serum creatinine”, “10” for “50”; assay type: functional; design: scale not given: the % may be the effect or the level left; details: time 5 day
[25] = Toxicity in C57BL/6 mouse assessed as kidney damage at 10 mg/kg, ip measured for 3 days by H and E staining based analysis; assay type: organism-based; details: in vivo, 72 h, time 3 day
Mus musculus [26] = experiment: as §1, with “4 to 10” for “50”; assay type: functional, organism-based; details: dose 4-10 mg/kg, time 5.0 day

| Compound | EC50 (HK-2 [1]) [µM] | CC50 at 48 h [2] [µM] | Kb [3] | also measured |
| --- | --- | --- | --- | --- |
| Cc1c(O)c(=O)ccn1CC1CCCCC1 | > 100 | > 100 | 1.32 10^22/M |  |
| Cc1c(O)c(=O)ccn1-c1ccc(N(C)C)cc1 | 45 | > 100 | 0.98 10^22/M |  |
| Cc1c(O)c(=O)ccn1-c1ccc(OCCOCCN(C)C)cc1 | 28 | 68 | 1.79 10^22/M | Ratio IC50 [4]: 1.5; Activity (HK-2 [5]): Active; IC50 [6]: 22.2 µM |
| Cc1c(O)c(=O)ccn1-c1ccc(OCC2CCN(C)CC2)cc1 | 43 | > 100 | 1.12 10^22/M |  |
| COc1cc(N2CCN(C)CC2)ccc1-n1ccc(=O)c(O)c1C | > 100 | > 100 | 1.88 10^22/M |  |
| Cc1c(O)c(=O)ccn1-c1ccc(N2CCN(C)CC2)c(F)c1 | 93 | > 100 | 1.17 10^22/M |  |
| Cc1c(O)c(=O)ccn1-c1ccc(OCCN(C)C)cc1 | 18 | > 100 | 1.37 10^22/M | Ratio IC50 [4]: 1.5; Activity (HK-2 [5]): Active; IC50 [6]: 22.9 µM |
| Cc1c(O)c(=O)ccn1-c1ccc(OCCN2CCCCC2)cc1 | 86 | > 100 | 2.23 10^22/M |  |
| CCc1c(O)c(=O)ccn1CCc1ccccc1 | > 100 | > 100 | 1.69 10^22/M |  |
| Cc1c(O)c(=O)ccn1C [DEFERIPRONE] | > 100 | > 100 | 1.52 10^22/M | Activity [7]: Toxic; Activity (Mus musculus [8]): 19%; IC50 [6]: 16 µM; Activity (Mus musculus [9]): 18% |
| Cc1c(O)c(=O)ccn1CCN(C)C | > 100 | > 100 | 1.21 10^22/M |  |
| Cc1c(O)c(=O)ccn1-c1ccc(OC2CCN(C)C2)cc1 (centres undefined) | > 100 | > 100 | 1.35 10^22/M |  |
| Cc1c(O)c(=O)ccn1-c1ccc(OCCCN2CCOCC2)cc1 | 20 | 78 | 1.23 10^22/M | Ratio IC50 [4]: 1.5; Activity (HK-2 [5]): Active; IC50 [6]: 17.2 µM |
| Cc1c(O)c(=O)ccn1-c1ccc(N2CCN(C)CC2)cc1 | 60 | 81 | 1.3 10^22/M | Activity (HK-2 [10]): Active |
| Cc1c(O)c(=O)ccn1-c1ccc(N(C)CCO)cc1 | 46 | > 100 | 1.15 10^22/M |  |
| Cc1c(O)c(=O)ccn1-c1ccc(N(C)CCN(C)C)cc1.Cl | 20 | > 100 | 1.16 10^22/M | Activity (Mus musculus [11]): Active; Activity (Mus musculus [12]): 68%; Activity (Mus musculus [13]): Active; Activity [14]: Non-Toxic; Activity (Mus musculus [15]): 14%; Activity [16]: Dose-Dependent Effect; Ratio IC50 [4]: 1.5; Activity (HK-2 [5]): Active; Activity (Mus musculus [17]): 19%; Activity (HK-2 [18]): Active; Activity [19]: Non-Toxic; Activity (Mus musculus [20]): Active; Activity [21]: Non-Toxic; Activity (Mus musculus [22]): Active; Activity (Mus musculus [23]): Active; Activity (Mus musculus [24]): 44%; Activity [25]: Non-Toxic; Activity (Mus musculus [26]): Active; IC50 [6]: 12.3 µM |
| Cc1c(O)c(=O)ccn1-c1ccc(N2CCOCC2)cc1 | 58 | > 100 | 1.33 10^22/M |  |
| Cc1c(O)c(=O)ccn1-c1ccc(NCCN(C)C)cc1 | 35 | > 100 | 1.4 10^22/M |  |
| Cc1c(O)c(=O)ccn1-c1ccc(NCCN2CCN(C)CC2)cc1 | 44 | > 100 | 1.22 10^22/M |  |
| Cc1c(C)c2c(c(C)c1O)CCC(C)(C(=O)O)O2 (centres undefined) [TROLOX] |  |  |  | IC50 [6]: 33.7 µM |
| Cc1c(O)c(=O)ccn1CCc1ccccc1 | > 100 | > 100 | 1 10^22/M |  |
